Source: PMC8198049, “Synthesis and Evaluation of the Tetracyclic Ring-System of Isocryptolepine and Regioisomers for Antimalarial, Antiproliferative and Antimicrobial Activities” (Molecules, 2021)
In brackets after ≈: the same amount, converted by molar mass. Structures can show the parent of a compound that is named as a salt. Where two headings read alike, the source gives them in different places.

Experiments:
[1] = Antiplasmodial imaging assay; format: cell-based, Plasmodium falciparum; details: human (HEK293) and Plasmodium falciparum (3D7)
Protocol: (§1) Compounds tested in the antiproliferative assays were tested in 11 dilution points (0.02 µM–40 µM or 0.04 µM–80 µM).
(§2) Antiplasmodial activity was determined as previously described by Duffy and Avery. […] After incubation, plates were stained with 4’,6-diamidino-2-phenylindole (DAPI) in a permeabilization buffer for 5 h at rt in the dark. Plates were imaged on the Opera confocal microplate image reader (PerkinElmer).

[2] = tested on: Plasmodium falciparum 3D7 strain; assay: Antiplasmodial imaging assay; format: cell-based; details: P. falciparum 3D7, 72 h, mean ± standard deviation, two separate experiments; for IC50: Plasmodium falciparum
Protocol: as §1, §2

[3] = tested on: HCT116 (human colon cancer); assay: Antiproliferative assay (resazurin); format: cell-based; details: for IC50: Homo sapiens, HCT-116, 72 h compound incubation, mean ± sem, two separate experiments
Protocol: (§3) Compounds tested in the antiproliferative assays were tested in 11 dilution points (0.02 µM–40 µM or 0.04 µM–80 µM). […] HCT116 cells were maintained in McCoy’s 5A media (Life Technologies, CA, USA), MDA-MB-231 cells were cultured in DMEM media (Life Technologies) with 10 mM HEPES (Life Technologies), whilst PC-3 cells were maintained in RPMI media (Life Technologies). All media were supplemented with 10% heat-inactivated fetal bovine serum (Australian source; Corning, CA, USA) and all cells were incubated at 37 °C in a humidified incubator with 5% CO2. Cells were seeded in 384-well plates (Greiner Bio-One, NC, USA) using the respective complete media. After 24 h cell seeding, compounds were added and antiproliferative activity was determined using the resazurin assay after 72 h compound incubation. Briefly, cells were incubated with 60 µM resazurin (Cayman, MI, USA) for 6 h at 37 °C and fluorescence signals were measured using a microplate reader (EnSight, PerkinElmer, Waltham, MA, USA).

[4] = tested on: MDA-MB-231 (human breast adenocarcinoma); assay: Antiproliferative assay (resazurin); format: cell-based; details: for IC50: Homo sapiens, MDA-MB-231, 72 h compound incubation, mean ± sem, two separate experiments; for % at 80 µM (printed in MDA-MB-231 IC50 column): MDA-MB-231, 80 µM
Protocol: as §3

[5] = tested on: PC-3 (human prostate cancer); assay: Antiproliferative assay (resazurin); format: cell-based; details: for % at 40 µM (PC-3): PC-3, 40 µM; for IC50: Homo sapiens, 72 h compound incubation, mean ± sem, two separate experiments; for % at 80 µM (PC-3): PC-3, 80 µM
Protocol: as §3

[6] = tested on: HCT116, MDA-MB-231 and PC-3; assay: Antiproliferative assay, whole panel of cancer cell lines; format: cell-based, human
Protocol: as §3

[7] = Cytotoxicity assay (resazurin-based viability); format: cell-based; details: human, HEK293 cells, mean ± standard deviation, two separate experiments
Protocol: Fluorescence was measured using an EnSight plate reader (PerkinElmer, Waltham, MA, USA).

E. faecalis (ATCC 29122) = assay: Bacterial growth inhibition assay; format: cell-based, Enterococcus faecialis; details: Enterococcus faecalis, ATCC29122
Protocol: (§4) The prepared samples were tested for in vitro antimicrobial activity against E. faecalis, E. coli, P. aeruginosa, S. aureus, Streptococcus agalactiae and S. epidermis using gentamycin as a reference compound.
(§5) To determine and quantify antimicrobial activity, a bacteria growth inhibition assay in liquid media was executed. Compounds 2–3, 4, 8–10, 13–14, 16, 18, and 20 were tested against Staphylococcus aureus (ATCC 25923), Escherichia coli (ATCC 259233), Enterococcus faecialis (ATCC 29122), Pseudomonas aeruginosa (ATCC 27853) and Streptococcus agalactiae (ATCC 12386); all strains from LGC Standards (Teddington, UK). S. aureus, E. coli, and P. aeruginosa were grown in Muller Hinton broth (275730, Becton, Franklin Lakes, NJ, USA). E. faecalis and S. agalactiae were cultured in brain hearth infusion broth (53286, Sigma, St Louise, MO, USA). Fresh bacterial colonies were transferred in the respective medium and incubated at 37 °C overnight. The bacterial cultures were diluted to a culture density representing the log phase and µL/well were pipetted into a 96-well microtiter plate (734–2097, NunclonTM, Thermo Scientific, Waltham, MA, USA). The final cell density was 1500–15.000 colony forming units/well. The compound was diluted in 2% (v/v) DMSO in ddH2O, providing a final assay concentration of 50% of the prepared sample, since 50 µL of sample in DMSO/water were added to 50 µL bacterial culture. After adding the samples to the plates, they were incubated overnight at 37 °C and the growth was determined by measuring the optical density at λ = 600 nm (OD600) with a 1420 Multilabel Counter VICTOR3TM (Perkin Elmer, Waltham, MA, USA). A water sample was used as a reference control, growth medium without bacteria was used as a negative control and dilution series of gentamycin (A2712, Merck, Darmstadt, DE) from 32 to 0.01 µg/mL was used as positive control and visually inspected for bacterial growth. The positive control was used as a system suitability test and the results of the antimicrobial assay were only considered valid when positive control was passed. The final concentration of DMSO in the assays was ≤2% (v/v) and was known to have no effect in the tested bacteria. The data was processed using GraphPad Prism 8.

S. aureus (ATCC 25923) = assay: Bacterial growth inhibition assay; format: cell-based, Staphylococcus aureus; details: Staphylococcus aureus, ATCC25923
Protocol: as §4, §5

[8] = tested on: S. epidermis (ATCC 35984); assay: Biofilm formation inhibition assay; format: cell-based, Staphylococcus epidermidis; details: inhibition of biofilm formation
Protocol: as §4
For testing the inhibition of biofilm formation, the biofilm-producing Staphylococcus epidermidis (ATCC 35984) was grown in Tryptic Soy Broth (TSB, 105459, Merck, Kenilworth, NJ, USA) overnight at 37 °C. The overnight culture was diluted in fresh medium with 1% glucose (D9434, Sigma) before being transferred to a 96-well microtiter plate; 50 µL/well were incubated overnight with 50 µL of the test compound dissolved in 2% (v/v) DMSO aq. added in duplicates. The bacterial culture was removed from the plate and the plate was washed with tap water. The biofilm was fixed at 65 °C for 1 h before 70 µL 0.1% crystal violet (115940, Millipore, Burlington, MA, USA) was added to the wells for 10 min of incubation and 70 µL of 70% ethanol was then added to each well and the plate incubated on a shaker for 5–10 min. Biofilm formation inhibition was assessed by the presence of violet color and measured at […] absorbance using a 1420 Multilabel Counter VICTOR3TM; 50 µL of a non-biofilm forming Staphylococcus haemolyticus (clinical isolate 8-7A, University Hospital of North Norway Tromsø, Norway) mixed in 50 µL autoclaved Milli-Q water was used as a control; 50 µL S. epidermidis mixed in 50 µL autoclaved Milli-Q water was used as the control for biofilm formation; and 50 µL TSB with 50 µL autoclaved Milli-Q water was used as a medium blank control.

[9] = tested on: Streptococcus agalactiae (ATCC 12386); assay: Bacterial growth inhibition assay; format: cell-based; details: ATCC12386
Protocol: as §4, §5

[10] = HEK293 cells versus Plasmodium falciparum 3D7 culture, HEK293 vs 3D7, read-out: SI (selectivity index = cytotoxicity in HEK293/activity in 3D7)

C[n+]1cccc2c3c(ccc21)[nH]c1ccccc13 [Compound 10, 4-Methyl-7H-pyrido[2,3-c]carbazolium Iodide]
selectivity ratio at 72 h [1, 10]: 214 | IC50 [2]: 128 ± 2 nM | % at 40 µM (printed in HCT116 IC50 column) ([3]; HCT116, 40 µM): 38% at 40 µM | % at 40 µM (printed in MDA-MB-231 IC50 column) ([4]; MDA-MB-231, 40 µM): 24% at 40 µM | % at 40 µM (PC-3) [5]: 36% at 40 µM | activity against the panel of cancer cell lines [6]: no activity

COc1cccc2c1C(=O)c1c(O)c3c(c(O)c1C2=O)C[C@@](O)(C(=O)CO)C[C@@H]3O[C@H]1C[C@H](N)[C@H](O)[C@H](C)O1 [Doxorubicin, reference compound]
IC50 [3]: 150 nM | IC50 [4]: 590 nM | IC50 [5]: 830 nM

C=CCn1cc2c3ccccc3nc-2c2ccccc21 [Compound 3c, 5-Allyl-5H-indolo[3,2-c]quinoline]
selectivity ratio at 72 h [1, 10]: 2.6 | IC50 [2]: 1200 ± 32 nM | IC50 at 72 h [7]: 3.15 ± 0.04 µM | IC50 [3]: 1240 ± 80 nM | IC50 [4]: 3060 ± 467 nM | IC50 [5]: 1300 ± 51 nM

CCN(CC)CCCC(C)Nc1ccnc2cc(Cl)ccc12 (stereo not drawn) [Chloroquine, chloroquine, reference compound]
IC50 at 72 h [7]: > 4 µM

CN1C=Cc2nc3ccccc3c3cccc1c23 [Compound 8a, 4-Methyl-4H-pyrido[4,3,2-gh]phenanthridine]
selectivity ratio at 72 h [1, 10]: 4.4 | IC50 [2]: 1698 ± 5 nM | IC50 at 72 h [7]: 7.41 ± 0.207 µM | IC50 [3]: 444 ± 52 nM | IC50 [4]: 360 ± 51 nM | IC50 [5]: 2570 ± 114 nM | MIC (E. faecalis (ATCC 29122)): 75 µM (≈ 17.4 µg/mL) | MIC (S. aureus (ATCC 25923)): 75 µM (≈ 17.4 µg/mL) | melting point: 182 to 183 °C

c1ccc2c(c1)Nc1ccnc3cccc-2c13 [Compound 4a, 7H-pyrido[4,3,2-gh]phenanthridine]
selectivity ratio at 72 h [1, 10]: 5.2 | IC50 [2]: 548 ± 3 nM | IC50 at 72 h [7]: 2.83 ± 0.092 µM | IC50 [3]: 721 ± 27 nM | IC50 [4]: 594 ± 140 nM | IC50 [5]: 1630 ± 173 nM | MIC (E. faecalis (ATCC 29122)): 100 µM (≈ 21.8 µg/mL) | MIC (S. aureus (ATCC 25923)): 100 µM (≈ 21.8 µg/mL)

c1ccc2nc3[nH]c4ccccc4c3cc2c1 [Compound 13, 6H-Indolo[2,3-b]quinoline]
3D7 IC50 [2]: no antiplasmodial inhibition | activity against the panel of cancer cell lines [6]: inactive

C[n+]1cccc2c3[nH]c4ccccc4c3ccc21 (as salt: hydroiodid) [Compound 21, 4-Methyl-11H-pyrido[3,2-a]carbazolium Iodide]
melting point: 279 to 280 °C

c1cnc2c(c1)ccc1c3ccccc3[nH]c12 [Compound 18, 11H-Pyrido[2,3-a]carbazole]
melting point: 164 °C

Fc1ccc2[nH]c3ccc4ncccc4c3c2c1 [Compound 9b, 10-Fluoro-7H-pyrido[2,3-c]carbazole]
MBIC [8]: 100 µM | melting point: 256 to 257 °C

CCn1cc2c3ccccc3nc-2c2ccccc21 [Compound 3b, 5-Ethyl-5H-indolo[3,2-c]quinoline]
selectivity ratio at 72 h [1, 10]: 2.3 | IC50 [2]: 1318 ± 5 nM | IC50 at 72 h [7]: 3.08 ± 0.049 µM | IC50 [3]: 742 ± 11 nM | IC50 [4]: 998 ± 300 nM | IC50 [5]: 2440 ± 94 nM | melting point: 198 °C

C[n+]1cccc2c3c(ccc21)[nH]c1ccccc13 (as salt: hydroiodid) [Compound 10, 4-Methyl-7H-pyrido[2,3-c]carbazolium Iodide]
melting point: 284 to 286 °C

C[C@H]1[C@@H](O)O[C@@H]2O[C@@]3(C)CC[C@H]4[C@H](C)CC[C@@H]1[C@@]24OO3 [DHA, dihydroartemisinin, reference compound]
selectivity ratio at 72 h [1, 10]: 74 | IC50 [2]: 1 ± 0.07 nM

C[n+]1cccc2c3[nH]c4ccccc4c3ccc21 [Compound 21, 4-Methyl-11H-pyrido[3,2-a]carbazolium Iodide]
IC50 [2]: 380 ± 0.5 nM | activity against the panel of cancer cell lines [6]: no activity

c1ccc2c(c1)[nH]c1c3cccnc3ccc21 [Compound 16, 11H-pyrido[3,2-a] carbazole]
3D7 IC50 ([2]; listed as 15): little to no activity | % at 80 µM (printed in HCT116 IC50 column) ([3]; HCT116, 80 µM): 82% at 80 µM | % at 80 µM (printed in MDA-MB-231 IC50 column) [4]: 80% at 80 µM

COc1ccc(C[C@H](N)C(=O)N[C@H]2[C@@H](O)[C@H](n3cnc4c(N(C)C)ncnc43)O[C@@H]2CO)cc1 [Puromycin, puromycin, reference compound]
selectivity ratio at 72 h [1]: 0.03 | IC50 [2]: 93 ± 2 nM | IC50 at 72 h [7]: 0.003 ± 0.003 µM | IC50 [3]: 85 nM | IC50 [4]: 300 nM | IC50 [5]: 270 nM

Cn1c2nc3ccccc3c-2cc2ccccc21 [Neocryptolepine (2), Neocryptolepine]
selectivity ratio at 72 h [1, 10]: > 2.8 | IC50 [2]: 7249 ± 6 nM | IC50 at 72 h [7]: > 20 µM | IC50 [3]: 6220 ± 90 nM | IC50 [4]: 10400 nM | % at 80 µM (PC-3) [5]: 27% at 80 µM | MIC [9]: 100 µM (≈ 23.2 µg/mL)

c1ccc2c(c1)ncc1c3ccccc3[nH]c21 [Compound 14, 11H-indolo[3,2-c]quinoline]
selectivity ratio at 72 h [1, 10]: 18.9 | IC50 [2]: 977 ± 11 nM | IC50 at 72 h [7]: 18.46 ± 0.183 µM | IC50 [3]: 3570 ± 309 nM | % at 80 µM (printed in MDA-MB-231 IC50 column) [4]: 36% at 80 µM ^e | % at 80 µM (PC-3) [5]: 30% at 80 µM ^f | activity against the panel of cancer cell lines [6]: poor activity

c1cnc2c(c1)ccc1[nH]c3ccccc3c12 [Compound 20, 7H-Pyrido[3,2-c]carbazole]
IC50 [2]: 2410 ± 42 nM | IC50 [3]: 17000 nM | IC50 [4]: 16400 nM | % at 40 µM (PC-3) [5]: 47% at 40 µM
